# Assay results reported in paper PMC11436758, “Computer-aided drug design to generate a unique antibiotic family” (Nature Communications, 2024).
# Several values for one entry are separate records, joined by “and”; a condition that tells them apart may be missing. Identical values can stand only once. Like-named read-outs stand apart in the source and are kept apart here.
# Columns and labels:
# [1] = target: T1, wild-type AcpS (Escherichia coli, UniProt P24224); test: Inhibition of purified wild-type AcpS by DNM0547; format: biochemical, E. coli; details: for AcpS rate nM/min, Mean / AcpS rate: Suppl Fig 3, [AcpS_WT] 5 nM; for AcpS rate: replicates
# T1 construct: 6x-His (C); made in house
# [2] = system: MRSA (ATCC 33591); test: Mouse cellulitis model of infection, topical treatment; format: in vivo, SKH1 mice; details: for Wound size (mm2), Mean / Wound size (mm2): Fig 2d
# Procedure: SKH1 mice from Charles River were used and male and female mice were utilized, sample size prevented disaggregation of data by sex. Mice were housed with a 12 h light and dark cycle at 21 °C in relative humidity of 40–50%. Investigators were blinded to group allocation, data collection, and data analysis. The formulation for delivery of DNM0547 was Glaxal base (WellSpring Pharmaceutical Canada Corp., Oakville, Canada). Formulation was performed by dissolving compound in Glaxal base to give final concentrations of 2% DNM0547 compound (w/v). MRSA (ATCC #33591) were grown to mid-log phase, concentrated by centrifugation and suspended in sterile PBS at a stock concentration of 2 × 10^11 CFU/mL.
# Four week old mice were anesthetized and injected intradermally with 1 × 10^8 CFU/mouse. 4 h after injection, mice were treated with 50 μl 2% DNM0547 cream, or excipient alone. Lesion dimensions were recorded daily for seven days. Food and water were given ad libidum. On day seven, mice were euthanized and the lesion area aseptically removed to 3 mL sterile PBS. The samples were homogenized and serial dilutions were plated on blood agar and incubated at 37 °C to determine CFU. The mouse model of skin infection was performed and evaluated with Washington Biotechnology Inc (Baltimore, MD, USA).
# [3] = system: HEK293 cells; test: cells; format: cell-based; details: Homo sapiens, Hek293 cells, 24 hrs
# Procedure: (§1) Stock solutions of the test agents were prepared in DMSO (40 mg/mL) and stored at −20 °C until use. AlamarBlue HS™ cell viability reagent was acquired from Invitrogen (Cat # A50100, Carlsbad, CA). COS7 and HEK293 cells (obtained from ATCC) were cultured and tested at 37 °C in a 5% CO2/100% humidity environment in DMEM media supplemented with 10% fetal bovine serum. Cells were trypsinized, centrifuged, resuspended in cell media, counted on a hemacytometer, and diluted to an appropriate cell density to give the desired number of cells per 300 μl media. Cells were then loaded into 48-well cell culture plates (3548; Corning, Inc.); 300 μl/well at 60,000 cells per well. The cell density was determined in preliminary tests to give linear AlamarBlue HS™ readings over a 3.5 h period for HEK293 cells and 2 h period for COS7 cells after 2 days of growth; 2 wells per plate were loaded with 300 μl/well of cell-free media to provide background readings. Plates were cultured overnight, after which test agent solutions were prepared in media at the highest test concentration (100 ug/mL) and at five serial dilutions, each containing 0.25% DMSO and 0.125% Kolliphor® EL (Cat# 27963, Sigma Aldrich). The compounds concentrations were then loaded in separate columns via 300 μl/well. […] Normalized values representing the amount of AlamarBlue converted to its […] form were calculated for each well using background-corrected absorbances as described by the Alamar-Blue HS protocol information packet available from Invitrogen Technical Support. The fraction of control viability for each agent concentration with each cell line was then determined by the ratio of normalized values for the treated wells to the control wells. […] Values were determined by linear interpolation of fraction of control growth against concentration for the test agent concentrations.
# [4] = in vitro; format: cell-based
# Procedure: as §1
# [5] = system: COS7 cells; test: cells; format: cell-based; details: for IC50: Chlorocebus aethiops, COS-7, COS7 cells, 24 hrs
# Procedure: as §1
# [6] = system: Primary Skin Fibroblasts cells; test: Cell culture toxicity, Alamar Blue HS fluorescence; format: cell-based; details: Suppl Fig 9, Primary Skin Fibroblasts cells
# [7] = Dermal pharmacokinetics, serum concentration after topical application; format: in vivo, Sprague Dawley rats
# Procedure: We determined that the maximum concentration present in serum was 1.02 μg/mL at 7.0 h after application with a time½ of 8.7 h. By 24 h the concentration of DNM0547 had decreased to 0.06 μg/mL and by 48 h was 0.03 μg/mL (Supplementary Fig. 8).
# Rat PK. […]
# Supplementary Figure 8. Dermal PK of DNM0547. a, 2% DNM0547 was applied to shaved skin of Sprague Dawley rats and DNM0547 concentration in serum was determined over time (n=5). b, PK parameters for DNM0547 in serum. CV, coefficient variation was determined using Graphpad Prism.
# (1 picture or pasted object on this page, not shown here)
# [8] = 2% cream for 7 days, versus vehicle control
# [9] = read-out: IC50 (cell viability)
# [10] = read-out: Log IC50 (cell viability) (converted)
# [11] = 2% on shaved skin, serum, mean, n=5
# T1 sequence (P24224 whole entry): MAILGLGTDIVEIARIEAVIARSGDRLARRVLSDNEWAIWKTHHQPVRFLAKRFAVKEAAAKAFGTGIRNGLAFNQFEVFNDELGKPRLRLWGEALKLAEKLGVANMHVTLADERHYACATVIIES
smiles,measurement,setting,value
CC(C)c1cc(Cl)ccc1-c1cc(-c2nnn[nH]2)c(-c2ccc(Cl)cc2C(C)C)s1 [DNM0547],IC50,[1],5.1 µM
same,"AcpS rate nM/min, Mean",[1]; Drug Conc 1 uM,40.51 nM/min
same,AcpS rate,[1]; Drug Conc 1 uM,41.16 nM/min and 37.27 nM/min and 43.10 nM/min
same,"AcpS rate nM/min, Mean",[1]; Drug Conc 2 uM,36.72 nM/min
same,AcpS rate,[1]; Drug Conc 2 uM,35.90 nM/min and 37.65 nM/min and 36.61 nM/min
same,"AcpS rate nM/min, Mean",[1]; Drug Conc 4 uM,24.24 nM/min
same,AcpS rate,[1]; Drug Conc 4 uM,27.20 nM/min and 22.45 nM/min and 23.08 nM/min
same,"AcpS rate nM/min, Mean",[1]; Drug Conc 8 uM,14.81 nM/min
same,AcpS rate,[1]; Drug Conc 8 uM,14.57 nM/min and 15.17 nM/min and 14.69 nM/min
same,"AcpS rate nM/min, Mean",[1]; Drug Conc 16 uM,6.58 nM/min
same,AcpS rate,[1]; Drug Conc 16 uM,5.73 nM/min and 8.26 nM/min and 5.76 nM/min
same,"AcpS rate nM/min, Mean",[1]; Drug Conc 32 uM,2.47 nM/min
same,AcpS rate,[1]; Drug Conc 32 uM,2.50 nM/min and 2.59 nM/min and 2.33 nM/min
same,"AcpS rate nM/min, Mean",[1]; Drug Conc 64 uM,1.94 nM/min
same,AcpS rate,[1]; Drug Conc 64 uM,1.85 nM/min and 1.95 nM/min and 2.00 nM/min
same,"AcpS rate nM/min, Mean",[1]; Drug Conc 128 uM,1.59 nM/min
same,AcpS rate,[1]; Drug Conc 128 uM,1.43 nM/min and 1.51 nM/min and 1.82 nM/min
same,remaining activity at 1 µM,"[1]; read-out: % of untreated, Suppl Fig 3, [AcpS_WT] 5 nM, Drug Conc 1 uM, replicates",99.1%
same,remaining activity at 2 µM,"[1]; read-out: % of untreated, Suppl Fig 3, [AcpS_WT] 5 nM, Drug Conc 2 uM, replicates",86.4%
same,remaining activity at 4 µM,"[1]; read-out: % of untreated, Suppl Fig 3, [AcpS_WT] 5 nM, Drug Conc 4 uM, replicates",65.5%
same,remaining activity at 8 µM,"[1]; read-out: % of untreated, Suppl Fig 3, [AcpS_WT] 5 nM, Drug Conc 8 uM, replicates",35.1%
same,remaining activity at 16 µM,"[1]; read-out: % of untreated, Suppl Fig 3, [AcpS_WT] 5 nM, Drug Conc 16 uM, replicates",13.8%
same,remaining activity at 32 µM,"[1]; read-out: % of untreated, Suppl Fig 3, [AcpS_WT] 5 nM, Drug Conc 32 uM, replicates",6.02%
same,remaining activity at 64 µM,"[1]; read-out: % of untreated, Suppl Fig 3, [AcpS_WT] 5 nM, Drug Conc 64 uM, replicates",4.46%
same,remaining activity at 128 µM,"[1]; read-out: % of untreated, Suppl Fig 3, [AcpS_WT] 5 nM, Drug Conc 128 uM, replicates",3.45%
same,reduction in wound size,[2]; [8],4 fold
same,reduction of bacterial load,[2]; [8],> 98%
same,CFUs,"[2]; Fig 2e, individual animals",66 CFUs and 3900 CFUs and 0 CFUs (2×) and 57 CFUs
same,"Wound size (mm2), Mean",[2]; Day 1,14.643 mm2
same,"Wound size (mm2), Mean",[2]; Day 2,24.6313 mm2
same,"Wound size (mm2), Mean",[2]; Day 3,14.2828 mm2
same,"Wound size (mm2), Mean",[2]; Day 4,14.2975 mm2
same,"Wound size (mm2), Mean",[2]; Day 5,12.6205 mm2
same,"Wound size (mm2), Mean",[2]; Day 6,11.8387 mm2
same,"Wound size (mm2), Mean",[2]; Day 7,14.2246 mm2
same,Wound size (mm2),"[2]; individual animals, Day 1",12.5374 mm2 and 14.3799 mm2 and 14.54 mm2 and 15.8884 mm2 and 15.87 mm2
same,Wound size (mm2),"[2]; individual animals, Day 2",25.0932 mm2 and 30.8908 mm2 and 21.02 mm2 and 14.3128 mm2 and 31.84 mm2
same,Wound size (mm2),"[2]; individual animals, Day 3",14.5538 mm2 and 21.2799 mm2 and 9.59 mm2 and 10.8726 mm2 and 15.12 mm2
same,Wound size (mm2),"[2]; individual animals, Day 4",15.4052 mm2 and 19.652 mm2 and 13.70 mm2 and 11.5756 mm2 and 11.16 mm2
same,Wound size (mm2),"[2]; individual animals, Day 5",9.8797 mm2 and 13.6551 mm2 and 8.00 mm2 and 10.1736 mm2 and 21.40 mm2
same,Wound size (mm2),"[2]; individual animals, Day 6",12.7154 mm2 and 14.2046 mm2 and 11.72 mm2 and 7.547 mm2 and 13.01 mm2
same,Wound size (mm2),"[2]; individual animals, Day 7",15.755 mm2 and 18.619 mm2 and 16.44 mm2 and 5.851 mm2 and 14.46 mm2
same,IC50,[3]; [9],41.5 µg/mL
same,IC50,[3]; [10],41.5 µg/mL
same,CC50 at 24 h,[4]; African green monkey,21 µg/mL
same,CC50 at 24 h,[4]; human,41 µg/mL
same,IC50,[5]; [9],21.2 µg/mL
same,IC50,[5]; [10],21.2 µg/mL
same,Fluorescence (FI),"[5]; Suppl Fig 9, COS7 cells, Alamar Blue HS, Conc. 40000 ng/ml",261 FI
same,Fluorescence (FI),[6]; Conc. 2 ng/ml,921 FI and 814 FI and 995 FI
same,Fluorescence (FI),[6]; Conc. 100 ng/ml,911 FI and 909 FI and 816 FI and 747 FI
same,Fluorescence (FI),[6]; Conc. 2500 ng/ml,895 FI and 904 FI and 819 FI and 790 FI
same,Fluorescence (FI),[6]; Conc. 5000 ng/ml,907 FI and 820 FI and 922 FI and 909 FI
same,Fluorescence (FI),[6]; Conc. 20000 ng/ml,577 FI and 548 FI and 542 FI and 552 FI
same,Fluorescence (FI),[6]; Conc. 40000 ng/ml,62 FI and 57 FI and 54 FI
same,Fluorescence (FI),[6]; Conc. 100000 ng/ml,7 FI and 5 FI
same,maximum concentration present in serum,[7]; 2% applied topically,1.02 µg/mL
same,Concmax,[7]; [11],1020 ng/mL
same,Time1/2,[7]; [11],8.78 h and 8.7 h
same,Timemax,[7]; [11],7.00 h and 7.0 h
same,concentration at 6 h,"[7]; Sprague Dawley, rat, in vivo, 2 %, Suppl Fig 8, Hour 6, individual animals, read-out: DNM0547 conc",261 ng/mL
same,concentration at 12 h,"[7]; Sprague Dawley, rat, in vivo, 2 %, Suppl Fig 8, Hour 12, individual animals, read-out: DNM0547 conc",386 ng/mL
same,Tmax,"[7]; Sprague Dawley, rat, serum, topical or ocular, 2% applied topically, read-out: time of maximum serum concentration after application",7 h
same,concentration at 24 h,"[7]; Sprague Dawley, rat, serum, topical, 2 %, 2% applied topically, 24 h",60 ng/mL
same,concentration at 48 h,"[7]; Sprague Dawley, rat, serum, topical, 2 %, 2% applied topically, 48 h",30 ng/mL
same,DNM0547 conc,"[7]; Suppl Fig 8, Hour 3, individual animals",387 ng/mL and 281 ng/mL and 713 ng/mL and 1147 ng/mL and 236 ng/mL and 356 ng/mL
same,DNM0547 conc,"[7]; Suppl Fig 8, Hour 6, individual animals",449 ng/mL and 1172 ng/mL and 560 ng/mL and 656 ng/mL and 1620 ng/mL
same,DNM0547 conc,"[7]; Suppl Fig 8, Hour 9, individual animals",623 ng/mL and 414 ng/mL and 681 ng/mL and 201 ng/mL and 177 ng/mL and 767 ng/mL
same,DNM0547 conc,"[7]; Suppl Fig 8, Hour 12, individual animals",477 ng/mL and 879 ng/mL and 564 ng/mL and 277 ng/mL and 158 ng/mL
same,DNM0547 conc,"[7]; Suppl Fig 8, Hour 24, individual animals",65 ng/mL and 33 ng/mL and 92 ng/mL and 38 ng/mL and 45 ng/mL and 60 ng/mL
same,DNM0547 conc,"[7]; Suppl Fig 8, Hour 48, individual animals",46 ng/mL and 21 ng/mL and 55 ng/mL and 17 ng/mL and 16 ng/mL and 14 ng/mL
